Measurements reported in patent US7417156B2, “Orally active, antimalarial, anticancer, artemisinin-derived trioxane dimers” (Johns Hopkins University, priority 2002, dated 2008).

Tests used:
TK-10 = assay: NCI 60 cell line panel screen (SRB); assay type: cell-based, human; conditions: for Log10GI50: Renal Cancer, TK-10; for Log10LC50 / Log10TGI50: TK-10 (Renal Cancer); for Log10LC50: LC50: PG=−50; for Log10TGI50: TGI: PG=0
SNB-19 = assay: NCI 60 cell line panel screen (SRB); assay type: cell-based, human; conditions: for Log10GI50: CNS Cancer, SNB-19; for Log10LC50 / Log10TGI50: SNB-19 (CNS Cancer); for Log10LC50: LC50: PG=−50; for Log10TGI50: TGI: PG=0
SK-MEL-2 = assay: NCI 60 cell line panel screen (SRB); assay type: cell-based, human; conditions: for Log10LC50: SK-MEL2 (Melanoma), LC50: PG=−50; for Log10TGI50: SK-MEL-2 (Melanoma), TGI: PG=0
NCI-H322M = assay type: cell-based; conditions: for Log10LC50: NCI-H322M (Non-Small Cell Lung Cancer), LC50: PG=−50
NCI-H23 = assay: NCI 60 cell line panel screen (SRB); assay type: cell-based, human; conditions: for Log10LC50 / Log10TGI50: NCI-H23 (Non-Small Cell Lung Cancer); for Log10LC50: LC50: PG=−50; for Log10TGI50: TGI: PG=0; for Log10GI50: Non-Small Cell Lung Cancer, NCI-H23
OVCAR-5 = assay: NCI 60 cell line panel screen (SRB); assay type: cell-based, human; conditions: for Log10LC50 / Log10TGI50: OVCAR-5 (Ovarian Cancer); for Log10LC50: LC50: PG=−50; for Log10TGI50: TGI: PG=0; for Log10GI50: Ovarian Cancer, OVCAR-5
UO-31 = assay: NCI 60 cell line panel screen (SRB); assay type: cell-based, human; conditions: for Log10GI50: Renal Cancer, UO-31; for Log10LC50 / Log10TGI50: UO-31 (Renal Cancer); for Log10LC50: LC50: PG=−50; for Log10TGI50: TGI: PG=0
IGROVI = assay: NCI 60 cell line panel screen (SRB); assay type: cell-based, human; conditions: for Log10LC50 / Log10TGI50: IGROVI (Ovarian Cancer); for Log10LC50: LC50: PG=−50; for Log10TGI50: TGI: PG=0
MOLT-4 = conditions: for Log10LC50 / Log10TGI50: MOLT-4 (Leukemia); for Log10LC50: LC50: PG=−50; for Log10TGI50: TGI: PG=0
How it was run: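 Sulforhodamine B staining of TCA-fixed cellular protein was the read-out, following 48 h compound exposure at 37 °C. Plates were pre-incubated 24 h before dosing, and five concentrations (routinely 10^−4 to 10^−8 molar) were tested in duplicate with time-zero and untreated controls. Values derive from test/control percentage growth relative to time-zero mass.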

HL-60(TB) = assay: NCI 60 cell line panel screen (SRB); assay type: cell-based, human; conditions: for Log10LC50 / Log10TGI50: HL-60(TB) (Leukemia); for Log10LC50: LC50: PG=−50; for Log10TGI50: TGI: PG=0; for Log10GI50: Leukemia, HL-60(TB)
BT-549 = assay: NCI 60 cell line panel screen (SRB); assay type: cell-based, human; conditions: for Log10LC50 / Log10TGI50: BT-549 (Breast Cancer); for Log10LC50: LC50: PG=−50; for Log10TGI50: TGI: PG=0; for Log10GI50: Breast Cancer, BT-549
HOP-92 = assay: NCI 60 cell line panel screen (SRB); assay type: cell-based, human; conditions: for Log10LC50 / Log10TGI50: HOP-92 (Non-Small Cell Lung Cancer); for Log10LC50: LC50: PG=−50; for Log10TGI50: TGI: PG=0; for Log10GI50: Non-Small Cell Lung Cancer, HOP-92
SF-539 = assay: NCI 60 cell line panel screen (SRB); assay type: cell-based, human; conditions: for Log10GI50: CNS Cancer, SF-539; for Log10LC50 / Log10TGI50: SF-539 (CNS Cancer); for Log10LC50: LC50: PG=−50; for Log10TGI50: TGI: PG=0
RXF 393 = assay: NCI 60 cell line panel screen (SRB); assay type: cell-based, human; conditions: for Log10LC50 / Log10TGI50: RXF 393 (Renal Cancer); for Log10LC50: LC50: PG=−50; for Log10TGI50: TGI: PG=0; for Log10GI50: Renal Cancer, RXF 393
CCRF-CEM = assay: NCI 60 cell line panel screen (SRB); assay type: cell-based, human; conditions: for Log10LC50 / Log10TGI50: CCRF-CEM (Leukemia); for Log10LC50: LC50: PG=−50; for Log10TGI50: TGI: PG=0; for Log10GI50: Leukemia, CCRF-CEM
U251 = assay: NCI 60 cell line panel screen (SRB); assay type: cell-based, human; conditions: for Log10GI50: CNS Cancer, U251; for Log10LC50 / Log10TGI50: U251 (CNS Cancer); for Log10LC50: LC50: PG=−50; for Log10TGI50: TGI: PG=0
PC-3 = assay: NCI 60 cell line panel screen (SRB); assay type: cell-based, human; conditions: for Log10LC50 / Log10TGI50: PC-3 (Prostate Cancer); for Log10LC50: LC50: PG=−50; for Log10TGI50: TGI: PG=0; for Log10GI50: Prostate Cancer, PC-3

CC1CCC2C(C)C(CC(O)(CC3OC4OC5(C)CCC6C(C)CCC(C3C)C46OO5)CS(=O)(=O)c3ccc(C(=O)O)cc3)OC3OC4(C)CCC1C32OO4 (stereo not drawn) [Compound 10c, bis-trioxane β-hydroxysulfone benzoic acid]
Log10GI50 (TK-10): <−8.30 | Log10LC50 (TK-10): −4.62 log10M | Log10TGI50 (TK-10): −5.40 log10M | Log10GI50 (SNB-19): −6.72 | Log10LC50 (SNB-19): −4.44 log10M | Log10TGI50 (SNB-19): −4.96 log10M | Log10LC50 (SK-MEL-2): >−4.30 log10M | Log10TGI50 (SK-MEL-2): >−4.30 log10M | Log10GI50 (NCI-H322M): −6.03 | Log10TGI50 (NCI-H322M): −4.98 log10M | Log10LC50 (NCI-H322M): −4.57 log10M | Log10LC50 (NCI-H23): −4.77 log10M | Log10TGI50 (NCI-H23): −5.25 log10M | Log10GI50 (NCI-H23): <−8.30 | Log10LC50 (OVCAR-5): −4.88 log10M | Log10TGI50 (OVCAR-5): <−8.30 log10M | Log10GI50 (OVCAR-5): <−8.30 | Log10GI50 (UO-31): −5.91 | Log10LC50 (UO-31): >−4.30 log10M | Log10TGI50 (UO-31): >−4.30 log10M | Log10LC50 (IGROVI): >−4.30 log10M | Log10TGI50 (IGROVI): >−4.30 log10M | Log10LC50 (MOLT-4): >−4.30 log10M | Log10TGI50 (MOLT-4): >−4.30 log10M | Log10LC50 (HL-60(TB)): >−4.30 log10M | Log10TGI50 (HL-60(TB)): <−8.30 log10M | Log10GI50 (HL-60(TB)): <−8.30 | Log10LC50 (BT-549): −4.61 log10M | Log10TGI50 (BT-549): −5.54 log10M | Log10GI50 (BT-549): −6.67 | Log10LC50 (HOP-92): −4.52 log10M | Log10TGI50 (HOP-92): −5.05 log10M | Log10GI50 (HOP-92): <−8.30 | Log10GI50 (SF-539): −5.19 | Log10LC50 (SF-539): >−4.30 log10M | Log10TGI50 (SF-539): −4.66 log10M | Log10LC50 (RXF 393): −4.73 log10M | Log10TGI50 (RXF 393): −5.99 log10M | Log10GI50 (RXF 393): <−8.30 | Log10LC50 (CCRF-CEM): >−4.30 log10M | Log10TGI50 (CCRF-CEM): −4.84 log10M | Log10GI50 (CCRF-CEM): <−8.30 | Log10GI50 (U251): <−8.30 | Log10LC50 (U251): −4.72 log10M | Log10TGI50 (U251): −5.22 log10M | Log10LC50 (PC-3): −4.62 log10M | Log10TGI50 (PC-3): −5.23 log10M | Log10GI50 (PC-3): <−8.30

C[C@@H]1CC[C@H]2[C@@H](C)C(CC(O)(CC3OC4O[C@]5(C)CC[C@H]6[C@H](C)CC[C@@H]([C@H]3C)C46OO5)c3ccc(C(=O)O)cc3)OC3O[C@]4(C)CCC1C32OO4 (stereo partly drawn) [Compound 11b, bis-trioxane tertiary alcohol benzoic acid]
Log10GI50 (TK-10): −7.81 | Log10LC50 (TK-10): >−4.30 log10M | Log10TGI50 (TK-10): −5.86 log10M | Log10GI50 (SNB-19): −6.53 | Log10LC50 (SNB-19): >−4.30 log10M | Log10TGI50 (SNB-19): >−4.30 log10M | Log10GI50 (SK-MEL-2; Melanoma, SK-MEL-2): −6.43 | Log10LC50 (SK-MEL-2): >−4.30 log10M | Log10TGI50 (SK-MEL-2): >−4.30 log10M | Log10GI50 (NCI-H322M): −6.72 | Log10TGI50 (NCI-H322M): >−4.30 log10M | Log10LC50 (NCI-H322M): >−4.30 log10M | Log10LC50 (NCI-H23): >−4.30 log10M | Log10TGI50 (NCI-H23): −4.63 log10M | Log10GI50 (NCI-H23): −8.19 | Log10LC50 (OVCAR-5): >−4.30 log10M | Log10TGI50 (OVCAR-5): −6.95 log10M | Log10GI50 (OVCAR-5): <−8.30 | Log10GI50 (UO-31): −6.78 | Log10LC50 (UO-31): >−4.30 log10M | Log10TGI50 (UO-31): >−4.30 log10M | Log10LC50 (IGROVI): >−4.30 log10M | Log10TGI50 (IGROVI): −4.50 log10M | Log10GI50 (IGROVI; Ovarian Cancer, IGROVI): −5.98 | Log10GI50 (MOLT-4; Leukemia, MOLT-4): <−8.30 | Log10LC50 (MOLT-4): >−4.30 log10M | Log10TGI50 (MOLT-4): >−4.30 log10M | Log10LC50 (HL-60(TB)): −4.55 log10M | Log10TGI50 (HL-60(TB)): −8.11 log10M | Log10GI50 (HL-60(TB)): <−8.30 | Log10LC50 (BT-549): >−4.30 log10M | Log10TGI50 (BT-549): −5.32 log10M | Log10GI50 (BT-549): −5.82 | Log10LC50 (HOP-92): >−4.30 log10M | Log10TGI50 (HOP-92): >−4.30 log10M | Log10GI50 (HOP-92): −7.43 | Log10GI50 (SF-539): −4.80 | Log10LC50 (SF-539): >−4.30 log10M | Log10TGI50 (SF-539): >−4.30 log10M | Log10LC50 (RXF 393): >−4.30 log10M | Log10TGI50 (RXF 393): −7.60 log10M | Log10GI50 (RXF 393): <−8.30 | Log10LC50 (CCRF-CEM): >−4.30 log10M | Log10TGI50 (CCRF-CEM): >−4.30 log10M | Log10GI50 (CCRF-CEM): −8.07 | Log10GI50 (U251): <−8.30 | Log10LC50 (U251): >−4.30 log10M | Log10TGI50 (U251): −7.39 log10M | Log10LC50 (PC-3): >−4.30 log10M | Log10TGI50 (PC-3): −5.75 log10M | Log10GI50 (PC-3): <−8.30
